Literature values in US8226980B2, “Orally disintegrating solid dosage forms comprising progestin and methods of making and using thereof” (Teva Women's Health, Inc., priority 2006, dated 2012).
Read-outs that look alike come from different tables or passages of the source.

Conditions: for Dose roughly equivalent to 0.050 mg of levonorgestrel: in a contraceptive regimen

SMILES: C#C[C@]1(OC(C)=O)CC[C@H]2[C@@H]3CCC4=CC(=O)CC[C@@H]4[C@H]3CC[C@@]21C [Norethindrone acetate]
- Dose roughly equivalent to 0.050 mg of levonorgestrel: about 0.175 mg
- Norethindrone Equivalent* Dose (progestin Dose 0.40 mg): 0.40 mg
- Norethindrone Equivalent* Dose (progestin Dose 0.50 mg): 0.50 mg
- Norethindrone Equivalent* Dose (progestin Dose 0.60 mg): 0.60 mg
- Norethindrone Equivalent* Dose (progestin Dose 1.00 mg): 1.00 mg
- Norethindrone Equivalent* Dose (progestin Dose 1.50 mg): 1.50 mg
- Norethindrone Equivalent* Dose (progestin Dose 2.50 mg): 2.50 mg

SMILES: C#C[C@]1(O)CC[C@H]2[C@@H]3CCC4=CCCC[C@@H]4[C@H]3C(=C)C[C@@]21CC [desogestrel]
- Dose roughly equivalent to 0.050 mg of levonorgestrel: about 0.050 mg

SMILES: C#C[C@]1(O)CCC2C3CCC4=CC(=O)CCC4C3CCC21CC (stereo partly drawn) [Levonorgestrel, 18,19-Dinorpregn-4-en-20-yn-3-one-13-ethyl-17-hydroxy-, (17α)-(−)-]
- Norethindrone Equivalent* Dose (progestin Dose 0.10 mg): 0.35 mg
- Norethindrone Equivalent* Dose (progestin Dose 0.15 mg): 0.52 mg

SMILES: C#C[C@]1(O)CC[C@H]2[C@@H]3CCC4=C(CCC(=O)C4)[C@H]3CC[C@@]21C [Norethynodrel]
- Norethindrone Equivalent* Dose (progestin Dose 2.50 mg): 2.50 mg
- Norethindrone Equivalent* Dose (progestin Dose 5.00 mg): 5.00 mg
- Norethindrone Equivalent* Dose (progestin Dose 9.85 mg): 9.85 mg

SMILES: C#C[C@]1(O)C=C[C@H]2[C@@H]3CCC4=CC(=O)CC[C@@H]4[C@H]3CC[C@@]21CC [gestodene]
- Dose roughly equivalent to 0.050 mg of levonorgestrel: about 0.035 mg

SMILES: C#C[C@]1(O)CC[C@H]2[C@@H]3CCC4=CC(=O)CC[C@@H]4[C@H]3CC[C@@]21C [Norethindrone]
- Norethindrone Equivalent* Dose (progestin Dose 1.00 mg): 1.00 mg
- Norethindrone Equivalent* Dose (progestin Dose 2.00 mg): 2.00 mg
- Norethindrone Equivalent* Dose (progestin Dose 10.00 mg): 10.00 mg

SMILES: C#C[C@]1(OC(C)=O)CC[C@H]2[C@@H]3CCC4=C[C@@H](OC(C)=O)CC[C@@H]4[C@H]3CC[C@@]21C [Ethynodiol diacetate]
- Norethindrone Equivalent* Dose (progestin Dose 1.00 mg): 1.00 mg

SMILES: C#C[C@]1(O)CC[C@H]2[C@@H]3CCC4=CC(=O)CC[C@@H]4[C@H]3C(=C)C[C@@]21CC [3-ketodesogestrel]
- Dose roughly equivalent to 0.050 mg of levonorgestrel: about 0.050 mg

SMILES: C#CC1(O)CC[C@H]2[C@@H]3CCC4=CC(=O)CC[C@@H]4[C@H]3CC[C@@]21CC (mixture of isomers) [dl-Norgestrel]
- Dose roughly equivalent to 0.050 mg of levonorgestrel: about 0.100 mg
- Norethindrone Equivalent* Dose (progestin Dose 0.30 mg): 0.45 mg
- Norethindrone Equivalent* Dose (progestin Dose 0.50 mg): 0.75 mg
